Consider three compounds from US6486185B1, “3-heteroarylidene-2-indolinone protein kinase inhibitors” (Sugen, Inc., priority 1997, dated 2002).

HER2 Kinase, sequence (P00533 25-645): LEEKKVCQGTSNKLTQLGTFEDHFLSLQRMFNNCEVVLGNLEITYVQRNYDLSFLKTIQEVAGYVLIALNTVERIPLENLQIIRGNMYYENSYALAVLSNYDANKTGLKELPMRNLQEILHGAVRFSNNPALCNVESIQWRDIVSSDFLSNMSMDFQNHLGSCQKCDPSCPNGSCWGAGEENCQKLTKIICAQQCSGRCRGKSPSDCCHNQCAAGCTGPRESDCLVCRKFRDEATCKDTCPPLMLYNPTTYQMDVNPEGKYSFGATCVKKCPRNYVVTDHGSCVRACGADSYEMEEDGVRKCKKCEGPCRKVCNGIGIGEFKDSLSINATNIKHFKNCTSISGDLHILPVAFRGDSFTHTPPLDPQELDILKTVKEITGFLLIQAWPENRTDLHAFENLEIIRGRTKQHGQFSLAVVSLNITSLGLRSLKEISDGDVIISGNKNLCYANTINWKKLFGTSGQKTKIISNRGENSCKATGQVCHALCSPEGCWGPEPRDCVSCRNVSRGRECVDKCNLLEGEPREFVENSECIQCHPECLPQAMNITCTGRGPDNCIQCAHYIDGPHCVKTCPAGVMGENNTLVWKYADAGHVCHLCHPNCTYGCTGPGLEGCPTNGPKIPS
HER2 Kinase, sequence (P04626 676-1255): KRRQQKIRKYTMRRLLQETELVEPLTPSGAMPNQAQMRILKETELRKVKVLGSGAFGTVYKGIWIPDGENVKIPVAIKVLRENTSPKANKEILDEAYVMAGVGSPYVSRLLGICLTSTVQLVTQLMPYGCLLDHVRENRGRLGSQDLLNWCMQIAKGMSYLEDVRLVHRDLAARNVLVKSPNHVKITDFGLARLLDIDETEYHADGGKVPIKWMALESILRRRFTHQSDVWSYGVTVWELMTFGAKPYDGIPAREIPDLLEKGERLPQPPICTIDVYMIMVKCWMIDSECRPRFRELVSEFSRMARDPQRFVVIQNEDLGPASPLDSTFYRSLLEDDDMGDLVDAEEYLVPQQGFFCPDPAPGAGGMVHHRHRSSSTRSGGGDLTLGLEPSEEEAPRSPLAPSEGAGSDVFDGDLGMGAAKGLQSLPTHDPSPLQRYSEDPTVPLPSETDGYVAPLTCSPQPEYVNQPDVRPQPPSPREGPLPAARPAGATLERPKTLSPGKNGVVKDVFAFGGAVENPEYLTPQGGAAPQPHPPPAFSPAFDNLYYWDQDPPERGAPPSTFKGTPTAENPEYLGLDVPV

The target of this assay is HER2 Kinase (Homo sapiens, UniProt P04626). The experiment in a line: HER-2 ELISA: EGF receptor-HER2 chimeric receptor assay in whole cells. The format is cell-based. The following applies: 50% inhibition of PTK activity over control. The method, then:
The cellular/catalytic assays described herein are performed in an ELISA format. […] The cells are lysed and the lysate is transferred to the wells of an ELISA plate previously coated with a specific antibody recognizing the substrate of the enzymatic phosphorylation reaction. Non-substrate components of the cell lysate are washed away and the amount of phosphorylation on the substrate is detected with an antibody specifically recognizing phosphotyrosine compared with control cells that were not contacted with a test compound. HER-2 ELISA […] EGF Receptor-HER2 Chimeric Receptor Assay in Whole Cells. HER2 kinase activity in whole EGFR-NIH3T3 cells are measured as described below: Materials and Reagents. The following materials and reagents can be used to conduct the assay: a. EGF: stock concentration: 16.5 ILM; EGF 201, TOYOBO, Co., Ltd. Japan. b. 05-101 (UBI) (a monoclonal antibody recognizing an EGFR extracellular domain). c. Anti-phosphotyrosine antibody (anti-Ptyr) (polyclonal)(see, Fendley, et al., supra). d. Detection antibody: Goat anti-rabbit lgG horse radish peroxidase conjugate, TAGO, Inc., Burlingame, Calif. e. TBST buffer: [table] f. HNTG 5×stock: [table] g. ABTS stock: [table] h. Stock reagents of: [table] Procedure. The following protocol is used: A. Pre-coat ELISA Plate […] Coat ELISA plates (Corning, 96 well, Cat. #25805-96) with 05-101 antibody at 0.5 µg per well in PBS, 100 μL final volume/well, and store overnight at 4° C. Coated plates are good for up to 10 days when stored at 4° C. 2. On day of use, remove coating buffer and replace with 100 μL blocking buffer (5% Carnation Instant Non-Fat Dry Milk in PBS). Incubate the plate, shaking, at room temperature (about 23° C. to 25° C.) for 30 minutes. Just prior to use, remove blocking buffer and wash plate 4 times with TBST buffer. B. Seeding Cells […] An NIH3T3 cell line overexpressing a chimeric receptor containing the EGFR extracellular domain and intracellular HER2 kinase domain can be used for this assay. 2. Choose dishes having 80-90% confluence for the experiment. […]
For `CCOC(=O)c1c[nH]c(C=C2C(=O)Nc3ccccc32)c1C` [3-(4-ethoxycarbonyl-3-methylpyrrol-2-methylidenyl)-2-indolinone], the IC50 (commonly the midpoint of a concentration-inhibition curve) was over 100 µM.
Compound `CCOC(=O)CCc1c(C(=O)OCC)[nH]c(C=C2C(=O)Nc3ccccc32)c1CC(=O)OCC` [3-[2-ethoxycarbonyl-3-(2-ethoxycarbonylethyl)-4-ethoxycarbonylmethyl)pyrrol-5-methylidenyl)-2-indolinone] showed an IC50 of over 10 µM.
As for `COC(=O)CCc1c[nH]c(C=C2C(=O)Nc3cc(OC)c(OC)cc32)c1C` [3-[4-(2-methoxycarbonylethyl)-3-methylpyrrol-2-methylidenyl]-5,6-dimethoxy-2-indolinone], the figure is over 50 µM.
